Drawing on ChEMBL document CHEMBL1134101, “The cyclohexene ring as bioisostere of a furanose ring: synthesis and antiviral activity of cyclohexenyl nucleosides” (Bioorg Med Chem Lett, 2001), this text covers IC50 and EC50 for four compounds.

The test system of experiment [1] is Human alphaherpesvirus 1. The experiment can be described thus: Tested for antiviral activity against HSV-1 (TK-KOS). The experiment is classed as functional, organism-based.
Experiment [2] deals with Human alphaherpesvirus 3. The experiment can be described thus: Tested for antiviral activity against VZV ([…]). The experiment is classed as functional, organism-based.
Experiment [3] relates to Cytomegalovirus. The experiment can be described thus: Tested for antiviral activity against HCMV (AD169). The experiment is classed as functional, organism-based, Human betaherpesvirus 5.
Experiment [4] relates to Human alphaherpesvirus 1. Description: Tested for antiviral activity against HSV-1 (KOS). The format is functional, organism-based.
Another experiment has as its system Hepatitis B virus. Description: Tested for antiviral activity against HBV (Hep AD79). The format is functional, organism-based.
Experiment [5] has as its system Human alphaherpesvirus 3. Description: Tested for antiviral activity against VZV (YS). The format is functional, organism-based.
Experiment [6] concerns Cytomegalovirus. Description: Effective concentration required against HCMV AD169 for antiviral activity. The format is functional, organism-based, Human betaherpesvirus 5.
The test system of another experiment is Human alphaherpesvirus 2. Description: Tested for antiviral activity against HSV-2 (G). The format is functional, organism-based.
The subject of experiment [7] is Cytomegalovirus. The experiment can be described thus: Effective concentration required against HCMV strain for antiviral activity. The format is functional, organism-based. The conditions noted are these: Human betaherpesvirus 5.
Where [8] appears, read: Human alphaherpesvirus 1, read-out: IC50.
Where [9] appears, read: Hepatitis B virus, read-out: IC50.
Setting [10] is: Human alphaherpesvirus 2, read-out: IC50.
The mark [11] stands for this setting: Human betaherpesvirus 5, read-out: EC50.

≈ marks a conversion by molar mass, not a printed value. Bounds are passed on as bounds.

With `Nc1nc(O)c2ncn(C3C=CC(CO)C(O)C3)c2n1` (stereo in doubt; form 2), the IC50 (commonly the midpoint of a concentration-inhibition curve) is 1.28 µg/mL (≈ 4.62 µM) in the experiment on Human alphaherpesvirus 1 [1]; 5.8 µg/mL (≈ 20.9 µM) in the experiment with Human alphaherpesvirus 3 [2]; 1.5 µg/mL (≈ 5.41 µM) in the experiment on Cytomegalovirus [3]; 0.003 µg/mL (≈ 0.0108 µM) with Human alphaherpesvirus 1 [4] (setting [8]); 3 µg/mL (≈ 10.8 µM) in the experiment with Hepatitis B virus (setting [9]); 1.2 µg/mL (≈ 4.33 µM) in the experiment on Human alphaherpesvirus 3 [5]. The half-inhibitory concentration (IC50) in the experiment with Human alphaherpesvirus 2 (setting [10]) came to 0.07 µg/mL (≈ 0.252 µM). The EC50 – broadly, the concentration that produces a half-maximal response – with Cytomegalovirus [6] worked out at 1.05 µg/mL (≈ 3.79 µM).

On to `Nc1nc(O)c2ncn(C3C=CC(CO)C(O)C3)c2n1` (stereo in doubt; form 1), for which the half-inhibitory concentration (IC50) with Human alphaherpesvirus 1 [1] came to 0.38 µg/mL (≈ 1.37 µM); in the experiment with Human alphaherpesvirus 3 [2] it was 2.1 µg/mL (≈ 7.57 µM); in the experiment on Cytomegalovirus [3], 0.6 µg/mL (≈ 2.16 µM); in the experiment on Human alphaherpesvirus 1 [4], 0.002 µg/mL (≈ 0.00721 µM); with Hepatitis B virus, 3 µg/mL (≈ 10.8 µM); in the experiment on Human alphaherpesvirus 3 [5], 0.49 µg/mL (≈ 1.77 µM). The IC50 in the experiment with Human alphaherpesvirus 2 turned out to be 0.05 µg/mL (≈ 0.18 µM). For the same compound, the EC50 with Cytomegalovirus [6] is 0.47 µg/mL (≈ 1.7 µM).

Take `Nc1nc2c(ncn2COCCO)c(=O)[nH]1` [ACYCLOVIR]: the IC50 in the experiment with Human alphaherpesvirus 1 [1] (setting [8]) is 9.6 µg/mL (≈ 42.6 µM); with Human alphaherpesvirus 1 [4] (setting [8]), 0.01 µg/mL (≈ 0.0444 µM); in the experiment on Hepatitis B virus (setting [9]), above 50 µg/mL; with Human alphaherpesvirus 2 (setting [10]), 0.02 µg/mL (≈ 0.0888 µM). Moreover, the EC50 with Cytomegalovirus [6] (setting [11]) and with Cytomegalovirus [7] was 16 µg/mL (≈ 71 µM) each time.

`Nc1nc2c(ncn2COC(CO)CO)c(=O)[nH]1` [GANCICLOVIR]: the half-inhibitory concentration (IC50) in the experiment with Human alphaherpesvirus 1 [1] (setting [8]) stood at 0.48 µg/mL (≈ 1.88 µM); in the experiment with Cytomegalovirus [3] (Human betaherpesvirus 5, read-out: IC50), 0.6 µg/mL (≈ 2.35 µM); in the experiment with Human alphaherpesvirus 1 [4] (setting [8]), 0.001 µg/mL (≈ 0.00392 µM); in the experiment on Hepatitis B virus (setting [9]), 45 µg/mL (≈ 176 µM); in the experiment with Human alphaherpesvirus 2 (setting [10]), 0.002 µg/mL (≈ 0.00784 µM). Moreover, the concentration for a half-maximal effect (EC50) with Cytomegalovirus [6] (setting [11]) was 0.77 µg/mL (≈ 3.02 µM).
